US10821115B2, “Compounds that inhibit Mcl-1 protein” (priority 2017, dated 2020)
Read-outs that look alike come from different tables or passages of the source.

How the values were obtained:
[1] = target: recombinant human Mcl-1 (residues 171-327) / Bim interaction (Homo sapiens (Human), UniProt Q07820); assay: biochemical; type: binding; conditions: read-out: Mcl-1 HTRF IC50
[2] = tested on: human multiple myeloma cell line, OPM-2; assay: Cell viability assay (OPM-2 10 FBS), CellTiter-Glo; type: cell-based
In short: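 Serially diluted test compounds are incubated 16 h with cells (3000/well) in RPMI 1640 supplemented with 10% FBS. Viability is then measured by luminescence and IC50 calculated by 4-parameter logistic fit.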

[3] = 0.1 nM Mcl-1(171-327), 0.05 nM biotin-Bim (51-76)
[4] = Homo sapiens, OPM-2, 16 h, read-out: OPM-2 10% FBS IC50 IP, OPM-2 cells, 10% FBS, 16 h incubation
[5] = TR-FRET, Mcl-1(171-327) / biotin-Bim (51-76)
[6] = Homo sapiens, OPM-2, 16 h, read-out: OPM-2 10% FBS IC50 IP, OPM-2 cells, 10% FBS, 16 h, CellTiter-Glo

Chain of recombinant human Mcl-1 (residues 171-327) / Bim interaction (Q07820 171-327): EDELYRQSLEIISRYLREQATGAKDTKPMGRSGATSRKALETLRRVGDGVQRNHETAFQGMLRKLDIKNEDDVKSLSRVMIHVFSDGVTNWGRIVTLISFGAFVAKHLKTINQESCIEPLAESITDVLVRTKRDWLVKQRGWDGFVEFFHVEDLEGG

Q: For `CO[C@@]1(CN2CCN(CCC#N)CC2)/C=C/C[C@H](C)[C@@H](C)S(=O)(=O)NC(=O)c2ccc3c(c2)N(C[C@@H]2CC[C@H]21)C[C@@]1(CCCc2cc(Cl)ccc21)CO3` [Example 318, 3-(4-(((1S,3′R,6′R,7′S,8′E,11′S, 12′R)-6-chloro-7′-methoxy-11′,12′-dimethyl-13′,13′-dioxido-15′-oxo-3,4-dihydro-2H-spiro[naphthalene-1,22′-[20]oxa[13]thia[1,14]diazatetracyclo [14.7.2.0~3,6~.0~19,24~]pentacosa[8,16,18,24]tetraen]-7′-yl)methyl)-1-piperazinyl)propanenitrile], which IC50 [1, 3] is on record?
A: 0.138 nM

Q: What about the IC50 [2, 4] of the same molecule?
A: 77 nM

Q: `CO[C@@]1(CN2CCN3CCN(C(=O)CCS(=O)(=O)c4ccccc4)C[C@@H]3C2)/C=C/C[C@H](C)[C@@H](C)S(=O)(=O)NC(=O)c2ccc3c(c2)N(C[C@@H]2CC[C@H]21)C[C@@]1(CCCc2cc(Cl)ccc21)CO3` (single isomer, unassigned) [Example 294] was tested. Which IC50 [1, 3] did it give?
A: 0.66 nM

Q: What about the IC50 ([2]; read-out: OPM-2 10% FBS IC50 IP, OPM-2 cells, 10% FBS, 16 h incubation) of the same molecule?
A: 687 nM

Q: For `C[C@@H]1[C@@H](C)CCC[C@@](O)(CCN2CC(F)(F)C2)[C@@H]2CC[C@H]2CN2C[C@@]3(CCCc4cc(Cl)ccc43)COc3ccc(cc32)C(=O)NS1(=O)=O` [Example 100094, (1S,3′R,6′R,7′R,11′S,12′R)-6-chloro-7′-(2-(3,3-difluoro-1-azetidinyl)ethyl)-7′-hydroxy-11′,12′-dimethyl-3,4-dihydro-2H,15′H-spiro[naphthalene-1,22′-[20]oxa[13]thia[1,14]diazatetracyclo [14.7.2.0~3,6~.0~19,24~]pentacosa[16,18,24]trien]-15′-one 13′,13′-dioxide], which IC50 [1, 5] is on record?
A: 3.83 nM

Q: And the IC50 ([2]; read-out: OPM-2 10% FBS IC50 IP, OPM-2 cells, 10% FBS, 16 h, CellTiter-Glo)?
A: 4380 nM

Q: Which results are given for `CCO[C@@]1(CN2CCN3CCOC[C@@H]3C2)/C=C/C[C@H](C)[C@@H](CC2CCC2)S(=O)(=O)NC(=O)c2ccc3c(c2)N(C[C@@H]2CC[C@H]21)C[C@@]1(CCCc2cc(Cl)ccc21)CO3` [Example 44, (1S,3′R,6′R,7′S,8′E,11′S,12′R)-6-chloro-12′-(cyclobutylmethyl)-7′-ethoxy-7′-((9aS)-hexahydropyrazino[2,1-c][1,4]oxazin-8(1H)-ylmethyl)-11′-methyl-3,4-dihydro-2H,15′H-spiro[naphthalene-1,22′-[20]oxa[13]thia[1,14]diazatetracyclo [14.7.2.0~3,6~.0~19,24~]pentacosa[8,16,18,24]tetraen]-15′-one 13′,13′-dioxide]?
A: IC50 [1, 3]: 0.288 nM; IC50 [2, 4]: 1360 nM

Q: Which results are given for `CO[C@]1(CN2CC3(C2)CN(C(C)C)C3)/C=C/C[C@H](C)[C@@H](C)S(=O)(=O)NC(=O)c2ccc3c(c2)N(C[C@@H]2CC[C@H]21)C[C@@]1(CCCc2cc(Cl)ccc21)CO3` [Example 320, (1S,3′R,6′R,7′R,8′E,11′S,12′R)-6-chloro-7′-methoxy-11′,12′-dimethyl-7′-((6-(1-methylethyl)-2,6-diazaspiro[3.3]hept-2-yl)methyl)-3,4-dihydro-2H,15′H-spiro[naphthalene-1,22′-[20]oxa[13]thia[1,14]diazatetracyclo [14.7.2.0~3,6~.0~19,24~]pentacosa[8,16,18,24]tetraen]-15′-one 13′,13′-dioxide]?
A: IC50 [1, 3]: 0.524 nM; IC50 [2, 4]: 302 nM

Q: What does the source list for `COCCN1CCN(CCO[C@@]2(C)/C=C/C[C@H](C)[C@@H](C)S(=O)(=O)NC(=O)c3ccc4c(c3)N(C[C@@H]3CC[C@H]32)C[C@@]2(CCCc3cc(Cl)ccc32)CO4)CC1` [Example 100485, (1S,3′R,6′R,7′S,8′E,11′S,12′R)-6-chloro-7′-(2-(4-(2-methoxyethyl)-1-piperazinyl)ethoxy)-7′,11′,12′-trimethyl-3,4-dihydro-2H,15′H-spiro[naphthalene-1,22′-[20]oxa[13]thia[1,14]diazatetracyclo [14.7.2.0~3,6~.0~19,24~]pentacosa[8,16,18,24]tetraen]-15′-one 13′,13′-dioxide]?
A: IC50 [1, 5]: 0.192 nM; IC50 [2, 6]: 272 nM

Q: For `CC(C)[C@]1(O)/C=C/C[C@H](C)[C@@H](C)S(=O)(=O)NC(=O)c2ccc3c(c2)N(C[C@@H]2CC[C@H]21)C[C@@]1(CCCc2cc(Cl)ccc21)CO3` [Example 100208, (1S,3′R,6′R,7′S,8′E,11′S,12′R)-6-chloro-7′-hydroxy-11′,12′-dimethyl-7′-(2-propanyl)-3,4-dihydro-2H,15′H-spiro[naphthalene-1,22′-[20]oxa[13]thia[1,14]diazatetracyclo [14.7.2.0~3,6~.0~19,24~]pentacosa[8,16,18,24]tetraen]-15′-one 13′,13′-dioxide], which IC50 [1, 5] is on record?
A: 0.431 nM

Q: What about the IC50 [2, 6] of the same molecule?
A: 318 nM

Q: How did the IC50 [1, 5] turn out when `CC(C)C[C@]1(O)/C=C/C[C@H](C)[C@@H](C)S(=O)(=O)NC(=O)c2ccc3c(c2)N(C[C@@H]2CC[C@H]21)C[C@@]1(CCCc2cc(Cl)ccc21)CO3` [Example 100224, (1S,3′R,6′R,7′S,8′E,11′S,12′R)-6-chloro-7′-hydroxy-11′,12′-dimethyl-7′-(2-methylpropyl)-3,4-dihydro-2H,15′H-spiro[naphthalene-1,22′-[20]oxa[13]thia[1,14]diazatetracyclo [14.7.2.0~3,6~.0~19,24~]pentacosa[8,16,18,24]tetraen]-15′-one 13′,13′-dioxide] was run?
A: 0.345 nM

Q: What about the IC50 [2, 6] of the same molecule?
A: 385 nM

Q: `CO[C@]1(C)/C=C/C[C@H](C)[C@@H](C)S(=O)(=O)NC(=O)c2ccc3c(c2)N(C[C@@H]2CC[C@H]21)C[C@@]1(CCCc2cc(Cl)ccc21)CO3` [Example 100215, (1S,3′R,6′R,7′R,8′E,11′S,12′R)-6-chloro-7′-methoxy-7′,11′,12′-trimethyl-3,4-dihydro-2H,15′H-spiro[naphthalene-1,22′-[20]oxa[13]thia[1,14]diazatetracyclo [14.7.2.0~3,6~.0~19,24~]pentacosa[8,16,18,24]tetraen]-15′-one 13′,13′-dioxide] was tested. Which IC50 [1] did it give?
A: 0.595 nM

Q: What about the IC50 [2, 6] of the same molecule?
A: 1250 nM

Q: With `C[C@@H]1[C@@H](C)CCCC(CN2CCOCC2)(CN2CCOCC2)[C@@H]2CC[C@H]2CN2C[C@@]3(CCCc4cc(Cl)ccc43)COc3ccc(cc32)C(=O)NS1(=O)=O` [Example 100452, (1S,3′R,6′R,11′S,12′R)-6-chloro-11′,12′-dimethyl-7′,7′-bis(4-morpholinylmethyl)-3,4-dihydro-2H,15′H-spiro[naphthalene-1,22′-[20]oxa[13]thia[1,14]diazatetracyclo [14.7.2.0~3,6~.0~19,24~]pentacosa[16,18,24]trien]-15′-one 13′,13′-dioxide] as the molecule, how does the IC50 [1, 5] read?
A: 0.077 nM

Q: And the IC50 [2, 6]?
A: 157 nM

Q: Which results are given for `C[C@@H]1[C@@H](C)CCC[C@@](O)(CC[S@@+](C)[O-])[C@@H]2CC[C@H]2CN2C[C@@]3(CCCc4cc(Cl)ccc43)COc3ccc(cc32)C(=O)NS1(=O)=O` [Example 100329, (1S,3′R,6′R,7′R,11′S,12′R)-6-chloro-7′-hydroxy-11′,12′-dimethyl-7′-(2-((R)-methylsulfinyl)ethyl)-3,4-dihydro-2H,15′H-spiro[naphthalene-1,22′-[20]oxa[13]thia[1,14]diazatetracyclo [14.7.2.0~3,6~.0~19,24~]pentacosa[16,18,24]trien]-15′-one 13′,13′-dioxide]?
A: IC50 [1, 5]: 5.02 nM; IC50 [2, 6]: 1560 nM

Q: Which IC50 [1, 3] does the source give for `C[C@@H]1CS(=O)(=O)NC(=O)c2ccc3c(c2)N(C[C@@H]2CC[C@H]2[C@@](O)(CN2CCN(C4COC4)CC2)/C=C/[C@@H]1C)C[C@@]1(CCCc2cc(Cl)ccc21)CO3` [Example 165, (1S,3′R,6′R,7′R,8′E,10′S,11′S)-6-chloro-7′-hydroxy-10′,11′-dimethyl-7′-((4-(3-oxetanyl)-1-piperazinyl)methyl)-3,4-dihydro-2H,15′H-spiro[naphthalene-1,22′-[20]oxa[13]thia[1,14]diazatetracyclo [14.7.2.0~3,6~.0~19,24~]pentacosa[8,16,18,24]tetraen]-15′-one 13′,13′-dioxide] here?
A: 0.19 nM

Q: And the IC50 [2, 4]?
A: 182 nM

Q: `C[C@@H]1[C@@H](C)C/C=C/[C@](O)(c2ccccn2)[C@@H]2CC[C@H]2CN2C[C@@]3(CCCc4cc(Cl)ccc43)COc3ccc(cc32)C(=O)NS1(=O)=O` [Example 100180, (1S,3′R,6′R,7′R,8′E,11′S,12′R)-6-chloro-7′-hydroxy-11′,12′-dimethyl-7′-(2-pyridinyl)-3,4-dihydro-2H,15′H-spiro[naphthalene-1,22′-[20]oxa[13]thia[1,14]diazatetracyclo [14.7.2.0~3,6~.0~19,24~]pentacosa[8,16,18,24]tetraen]-15′-one 13′,13′-dioxide] was tested. Which IC50 [1, 5] did it give?
A: 4.92 nM

Q: What about the IC50 [2, 6] of the same molecule?
A: 4420 nM

Q: Which IC50 [1, 5] does the source give for `CO[C@@]1(CC=C(C)C)/C=C/C[C@H](C)[C@@H](C)S(=O)(=O)NC(=O)c2ccc3c(c2)N(C[C@@H]2CC[C@H]21)C[C@@]1(CCCc2cc(Cl)ccc21)CO3` [Example 100447, (1S,3′R,6′R,7′S,8′E,11′S,12′R)-6-chloro-7′-methoxy-11′,12′-dimethyl-7′-(3-methyl-2-buten-1-yl)-3,4-dihydro-2H,15′H-spiro[naphthalene-1,22′-[20]oxa[13]thia[1,14]diazatetracyclo [14.7.2.0~3,6~.0~19,24~]pentacosa[8,16,18,24]tetraen]-15′-one 13′,13′-dioxide] here?
A: 0.05 nM

Q: What about the IC50 [2, 6] of the same molecule?
A: 184 nM

Q: Which IC50 [1, 3] does the source give for `CNC[C@@]1(OC)/C=C/C[C@H](C)[C@@H](C)S(=O)(=O)NC(=O)c2ccc3c(c2)N(C[C@@H]2CC[C@H]21)C[C@@]1(CCCc2cc(Cl)ccc21)CO3` [Example 70, (1S,3′R,6′R,7′R,8′E,11′S,12′R)-6-chloro-7′-methoxy-11′,12′-dimethyl-7′-((methylamino)methyl)-3,4-dihydro-2H,15′H-spiro[naphthalene-1,22′-[20]oxa[13]thia[1,14]diazatetracyclo [14.7.2.0~3,6~.0~19,24~]pentacosa[8,16,18,24]tetraen]-15′-one 13′,13′-dioxide] here?
A: 1.33 nM

Q: What about the IC50 [2, 4] of the same molecule?
A: 3140 nM
